The nature of experiment [1]: (§1) Cytotoxicity against human PANC1 cells assessed as cell viability after 24 hrs by WST8 assay. It counts as functional, PANC-1.
In experiment [2] the test system is PANC-1. The description is as §1. The experiment is classed as functional.
For experiment [3], the system named is PANC-1. Kind of experiment: Induction of apoptosis in human PANC1 cells at 50 uM after 24 hrs by phase contrast microscopy. It counts as functional, cell-based.
The subject of experiment [4] is PANC-1. Kind of experiment: Induction of apoptosis in human PANC1 cells grown in glucose/amino acid deprived medium after 24 hrs by phase contrast microscopy. The experiment is classed as functional, cell-based.
Experiment [5] deals with PANC-1. Kind of experiment: Induction of apoptosis in human PANC1 cells at 50 uM after 24 hrs by Annexin V/propidium iodide staining-based fluorescence microscopy. The experiment is classed as functional, cell-based.
Experiment [6] has as its system PANC-1. Kind of experiment: Induction of apoptosis in human PANC1 cells grown in glucose deprived medium after 24 hrs by phase contrast microscopy. The experiment is classed as functional, cell-based.

Activity calls are given as the source filed them. The rule behind the calls is not given here.

In the case of `COc1cc(OC)c2c(=O)c3c(OC)c(O)ccc3oc2c1`, in experiment [1], the PC50 is over 100 µM. Further, in experiment [2], the Activity result was “Dose-dependent effect”.

In the case of `COc1ccc2oc3cc(O)cc(OC)c3c(=O)c2c1OC`, in experiment [1], the PC50 was over 100 µM. Further, the Activity entry in experiment [2] is “Dose-dependent effect”.

As to `COc1c(C(=O)c2ccccc2)ccc2c1OCO2`, the PC50 in experiment [1] was over 100 µM. Besides, the Activity result in experiment [2] is “Dose-dependent effect”.

Consider `O=c1c2ccc(O)cc2oc2cccc(O)c12`, for which the PC50 in experiment [1] was over 100 µM. Moreover, in experiment [2], the Activity entry is “Dose-dependent effect”.

In the case of `COc1c(O)cccc1C(=O)OCc1ccccc1`, the PC50 in experiment [1] was over 100 µM. The Activity entry in experiment [2] is “Dose-dependent effect”.

`COc1cccc(C(=O)c2ccc(O)cc2O)c1`: the PC50 in experiment [1] is over 100 µM. Further, in experiment [2], the Activity entry is “Dose-dependent effect”.

For `COc1cc(O)c2c(=O)c3c(OC)c(O)ccc3oc2c1OC`, the PC50 in experiment [1] stood at 87.4 µM. Moreover, the Activity result in experiment [2] is “Dose-dependent effect”.

`COc1cc(OC)c(C(=O)c2ccccc2)cc1OC`: the PC50 in experiment [1] was over 100 µM. Further, the Activity entry in experiment [2] was “Dose-dependent effect”.

For `COc1cc(OC)c2c(=O)c3ccc(O)c(O)c3oc2c1`, the PC50 in experiment [1] was over 100 µM. The Activity entry in experiment [2] was “Dose-dependent effect”.

As for `COc1cc(O)c2c(=O)c3c(OC)c(OC)c(OC)c(O)c3oc2c1OC`, in experiment [1], the PC50 was over 100 µM. In addition, in experiment [2], the Activity entry was “Dose-dependent effect”.

In the case of `COc1cccc(O)c1C(=O)O`, in experiment [1], the PC50 is over 100 µM. In experiment [2], the Activity result is “Dose-dependent effect”.

As to `COc1c(OC)c(OC)c2c(=O)c3c(O)cc(O)c(OC)c3oc2c1O`, in experiment [1], the PC50 was over 100 µM. For the same molecule, the Activity result in experiment [2] is “Dose-dependent effect”.

Regarding `COc1c(O)cc2oc3ccccc3c(=O)c2c1O`, in experiment [1], the PC50 worked out at 81.2 µM. Further, the Activity result in experiment [2] was “Dose-dependent effect”.

For `COc1cc(OC)c2c(=O)c3ccc(O)c(OC)c3oc2c1`, the PC50 in experiment [1] came out at 93.1 µM. The Activity result in experiment [2] is “Dose-dependent effect”.

On to `COc1cc(O)c2c(=O)c3c(OC)c(OC)ccc3oc2c1OC`, for which the PC50 in experiment [1] came out at 73.3 µM. Also, the Activity result in experiment [2] was “Dose-dependent effect”.

On to `COc1cccc(O)c1C(=O)OCc1ccccc1`, for which the PC50 in experiment [1] is over 100 µM. The Activity entry in experiment [2] was “Dose-dependent effect”.

As to `COc1c(O)ccc(C(=O)c2ccccc2)c1O`, the PC50 in experiment [1] is over 100 µM. In addition, in experiment [2], the Activity result is “Dose-dependent effect”.

With `COc1c(OC)c(O)c2c(=O)c3c(O)cc(O)c(OC)c3oc2c1OC`, the outcome in experiment [3] was inactive. Further, the Activity result in experiment [4] and in experiment [2] was “Dose-dependent effect” in each case. Moreover, the result in experiment [5] was Active. Also, the PC50 in experiment [1] is 22.7 µM.

Consider `COc1cc(O)c2c(=O)c3c(OC)cc(OC)cc3oc2c1`, for which the PC50 in experiment [1] was over 100 µM. The Activity result in experiment [2] is “Dose-dependent effect”.

For `O=c1c2ccc(O)c(O)c2oc2cccc(O)c12`, the PC50 in experiment [1] is over 100 µM. Further, the Activity entry in experiment [2] is “Dose-dependent effect”.

For the molecule `CC(=O)O[C@H]1C(=O)[C@@]2(C)[C@H]([C@H](OC(=O)c3ccccc3)[C@]3(O)C[C@H](OC(=O)[C@H](O)[C@@H](NC(=O)c4ccccc4)c4ccccc4)C(C)=C1C3(C)C)[C@]1(OC(C)=O)CO[C@@H]1C[C@@H]2O` [PACLITAXEL], the PC50 in experiment [1] was over 100 µM.

As to `COc1c(O)ccc(C(=O)c2ccccc2)c1OC`, in experiment [1], the PC50 came to 81.3 µM. For the same molecule, the Activity result in experiment [2] was “Dose-dependent effect”.

For `COc1cc(O)c2c(=O)c3c(OC)c4c(c(OC)c3oc2c1OC)OCO4`, in experiment [1], the PC50 was determined as 78.1 µM. Besides, in experiment [2], the Activity entry was “Dose-dependent effect”.

As to `COc1cc(C[C@H]2C(=O)OC[C@@H]2Cc2ccc(OC)c(OC)c2)ccc1O` [ARCTIGENIN], the PC50 in experiment [1] stood at 0.5 µM.

In the case of `COc1ccc2oc3cccc(O)c3c(=O)c2c1`, the PC50 in experiment [1] came to 42.7 µM. Further, the Activity entry in experiment [2] is “Dose-dependent effect”.

Take `COc1cc(OC)c2c(=O)c3c(OC)c(OC)ccc3oc2c1OC`: the PC50 in experiment [1] turned out to be 93.6 µM. The Activity result in experiment [2] is “Dose-dependent effect”.

In the case of `COc1cc(O)c2c(=O)c3cc(O)ccc3oc2c1`, the PC50 in experiment [1] was over 100 µM. Further, in experiment [2], the Activity entry is “Dose-dependent effect”.

As to `COc1cc2oc3cccc(OC)c3c(=O)c2cc1OC`, the PC50 in experiment [1] was over 100 µM. The Activity entry in experiment [2] was “Dose-dependent effect”.

In the case of `COc1ccc2oc3ccc(O)c(OC)c3c(=O)c2c1O`, in experiment [1], the PC50 came out at 51.4 µM. Further, the Activity result in experiment [2] is “Dose-dependent effect”.

On to `COc1c(OC)c(O)c2c(=O)c3c(OC)cc(O)c(OC)c3oc2c1OC`, for which, in experiment [3], the result was inactive. In addition, the outcome in experiment [5] was Active. Besides, the PC50 in experiment [1] is 17.4 µM. For the same molecule, the Activity entry in experiment [2] and in experiment [6] was “Dose-dependent effect” throughout.

The record behind these values is ChEMBL document CHEMBL3091440, “Heptaoxygenated xanthones as anti-austerity agents from Securidaca longepedunculata” (2013).
